For orientation: TD50 means the dose at which the toxic effect under study appears in half of the subjects.

Here are results for six compounds from PubChem BioAssay AID1745844 (Carcinogenic Potency Database (CPDB), 2022).

Activity calls are given as the source filed them. The rule behind the calls is not given here.

In the series the test system is rodent lifetime carcinogenesis bioassay, tumor incidence TD50. Put plainly: chronic cancer bioassays in animals – CPDB, compiled studies (AID 1745844).

Turning to `Nc1ncn([C@@H]2O[C@H](CO)[C@@H](O)[C@H]2O)c(=O)n1`, the TD50 runs as follows: (mouse, strain B6C3F1, females, i.p., site: all sites + multiple organs, lesion: lymphoma + granulocytic leukemia + granulocytic sarcoma, dosed 52 weeks, study length 81 weeks) 0.256 mg/kg/day; (mouse, strain B6C3F1, females, i.p., site: all sites, lesion: lymphoma, dosed 52 weeks, study length 81 weeks) 0.615 mg/kg/day; (mouse, strain B6C3F1, females, i.p., site: any site (literature study), lesion: several types, types named in the paper, dosed 52 weeks, study length 81 weeks) 0.219 mg/kg/day; (mouse, strain B6C3F1, females, i.p., site: multiple organs, lesion: granulocytic leukemia + granulocytic sarcoma, dosed 52 weeks, study length 81 weeks) 0.52 mg/kg/day; (mouse, strain B6C3F1, males, i.p., site: any site (literature study), lesion: several types, types named in the paper, dosed 52 weeks, study length 81 weeks) 1.05 mg/kg/day; (mouse, strain B6C3F1, males, i.p., site: liver, lesion: hepatocellular adenoma + hepatocellular carcinoma + neoplastic nodule, dosed 52 weeks, study length 81 weeks) 15.7 mg/kg/day. Further, the TD50 was 61.4 mg/kg/day (mouse, strain B6C3F1, males, i.p., site: lung, lesion: alveolar/bronchiolar adenoma + alveolar/bronchiolar carcinoma, dosed 52 weeks, study length 81 weeks); 0.0364 mg/kg/day (mouse, strain BALB/c, females, i.p., site: any site (literature study), lesion: one or several types, types not named, dosed 50 weeks, study length 72 weeks); 0.0569 mg/kg/day (mouse, strain BALB/c, females, i.p., site: lymphoreticular system, lesion: several types, types named in the paper, dosed 50 weeks, study length 72 weeks); 0.618 mg/kg/day (mouse, strain BALB/c, females, i.p., site: mammary gland, lesion: adenocarcinoma, type B, dosed 50 weeks, study length 72 weeks); 0.432 mg/kg/day (mouse, strain BALB/c, females, i.p., site: mammary gland, lesion: several types, types named in the paper, dosed 50 weeks, study length 72 weeks); 0.499 mg/kg/day (mouse, strain BALB/c, females, i.p., site: skin, lesion: several types, types named in the paper, dosed 50 weeks, study length 72 weeks). Besides, the TD50 is, setting by setting: (mouse, strain BALB/c, males, i.p., site: any site (literature study), lesion: one or several types, types not named, dosed 50 weeks, study length 67 weeks) 0.0539 mg/kg/day; (mouse, strain BALB/c, males, i.p., site: liver, lesion: hepatocellular adenoma, dosed 50 weeks, study length 67 weeks) 1.49 mg/kg/day; (mouse, strain BALB/c, males, i.p., site: lung, lesion: adenoma, dosed 50 weeks, study length 67 weeks) 0.121 mg/kg/day; (mouse, strain BALB/c, males, i.p., site: lymphoreticular system, lesion: several types, types named in the paper, dosed 50 weeks, study length 67 weeks) 0.285 mg/kg/day; (mouse, strain BALB/c, males, i.p., site: skin, lesion: several types, types named in the paper, dosed 50 weeks, study length 67 weeks) 0.98 mg/kg/day; (rat, strain Fischer 344, males, i.p., site: any site (literature study), lesion: one or several types, types not named, dosed 52 weeks, study length 52 weeks) 0.17 mg/kg/day. Moreover, the TD50 reads like this: (rat, strain Fischer 344, males, i.p., site: testis, lesion: one or several types, types not named, dosed 52 weeks, study length 52 weeks) 0.222 mg/kg/day; (rat, strain Sprague-Dawley, females, i.p., site: any site (literature study), lesion: several types, types named in the paper, dosed 34 weeks, study length 80 weeks) 0.487 mg/kg/day; (rat, strain Sprague-Dawley, males, i.p., site: any site (literature study), lesion: several types, types named in the paper, dosed 34 weeks, study length 80 weeks) 0.328 mg/kg/day.

In the case of `CC(CO)OC(C)CO` (stereo not given) (tested in a mixture with another compound), the carcinogen call is, setting by setting: (mouse, strain B6C3F1, females, in drinking water, site: any site (literature study), lesion: several types, types named in the paper, dosed 104 weeks, study length 104 weeks) “negative (inactive)”; (rat, strain Fischer 344, females, in drinking water, site: any site (literature study), lesion: several types, types named in the paper, dosed 104 weeks, study length 104 weeks) “negative (inactive)”. Moreover, the TD50 (mouse, strain B6C3F1, females, in drinking water, site: lung, lesion: alveolar/bronchiolar adenoma + alveolar/bronchiolar carcinoma, dosed 104 weeks, study length 104 weeks) came to 31800 mg/kg/day; the TD50 (mouse, strain B6C3F1, males, in drinking water, site: any site (literature study), lesion: several types, types named in the paper, dosed 104 weeks, study length 104 weeks) was 24500 mg/kg/day (inactive); the TD50 (mouse, strain B6C3F1, males, in drinking water, site: lung, lesion: alveolar/bronchiolar adenoma + alveolar/bronchiolar carcinoma, dosed 104 weeks, study length 104 weeks) is 18100 mg/kg/day; the TD50 (rat, strain Fischer 344, males, in drinking water, site: any site (literature study), lesion: several types, types named in the paper, dosed 104 weeks, study length 102 weeks) was 274 mg/kg/day (inactive); the TD50 (rat, strain Fischer 344, males, in drinking water, site: liver, lesion: hepatocellular adenoma + hepatoblastoma + hepatocellular carcinoma, dosed 104 weeks, study length 102 weeks) came to 68200 mg/kg/day.

Regarding `O=[N+]([O-])c1ccc(NCCO)c(OCCO)c1`, the carcinogen call by setting is: (mouse, strain B6C3F1, females, in feed, site: any site (literature study), lesion: several types, types named in the paper, dosed 103 weeks, study length 104 weeks) “negative (inactive)”; (mouse, strain B6C3F1, males, in feed, site: any site (literature study), lesion: several types, types named in the paper, dosed 103 weeks, study length 104 weeks) “negative (inactive)”; (rat, strain Fischer 344, females, in feed, site: any site (literature study), lesion: several types, types named in the paper, dosed 103 weeks, study length 104 weeks) “negative (inactive)”. The compound also displayed a TD50 (rat, strain Fischer 344, males, in feed, site: pituitary gland, lesion: pars distalis adenoma, dosed 103 weeks, study length 104 weeks) of 465 mg/kg/day.

For `Oc1ccc2ccccc2c1N=Nc1ccccc1`, the TD50 (mouse, strain B6C3F1, females, in feed, site: all sites, lesion: lymphoma, dosed 103 weeks, study length 105 weeks) is 128 mg/kg/day (inactive); the TD50 (mouse, strain B6C3F1, females, in feed, site: any site (literature study), lesion: several types, types named in the paper, dosed 103 weeks, study length 105 weeks) came out at 391 mg/kg/day; the TD50 (mouse, strain B6C3F1, females, in feed, site: liver, lesion: hepatocellular adenoma + hepatocellular carcinoma + neoplastic nodule, dosed 103 weeks, study length 105 weeks) was 833 mg/kg/day; the TD50 (mouse, strain B6C3F1, females, in feed, site: lung, lesion: alveolar/bronchiolar adenoma + alveolar/bronchiolar carcinoma, dosed 103 weeks, study length 105 weeks) was 3030 mg/kg/day; the TD50 (mouse, strain B6C3F1, males, in feed, site: any site (literature study), lesion: several types, types named in the paper, dosed 103 weeks, study length 105 weeks) was 154 mg/kg/day (inactive); the TD50 (mouse, strain B6C3F1, males, in feed, site: liver, lesion: hepatocellular adenoma + hepatocellular carcinoma + neoplastic nodule, dosed 103 weeks, study length 105 weeks) is 587 mg/kg/day. Besides, the TD50 by setting is: (mouse, strain B6C3F1, males, in feed, site: lung, lesion: alveolar/bronchiolar adenoma + alveolar/bronchiolar carcinoma, dosed 103 weeks, study length 105 weeks) 1080 mg/kg/day; (rat, strain Fischer 344, females, in feed, site: liver, lesion: hepatocellular adenoma + hepatocellular carcinoma + neoplastic nodule, dosed 103 weeks, study length 104 weeks) 86.5 mg/kg/day; (rat, strain Fischer 344, females, in feed, site: liver, lesion: hepatocellular carcinoma + neoplastic nodule, dosed 103 weeks, study length 104 weeks) 86.5 mg/kg/day; (rat, strain Fischer 344, females, in feed, site: liver, lesion: neoplastic nodule, dosed 103 weeks, study length 104 weeks) 96.6 mg/kg/day; (rat, strain Fischer 344, females, in feed, site: subcutaneous tissue, lesion: fibroma, dosed 103 weeks, study length 104 weeks) 346 mg/kg/day; (rat, strain Fischer 344, males, in feed, site: any site (literature study), lesion: several types, types named in the paper, dosed 103 weeks, study length 104 weeks) 106 mg/kg/day. The TD50 runs as follows: (rat, strain Fischer 344, males, in feed, site: liver, lesion: hepatocellular adenoma + hepatocellular carcinoma + neoplastic nodule, dosed 103 weeks, study length 104 weeks) 17.9 mg/kg/day; (rat, strain Fischer 344, males, in feed, site: liver, lesion: hepatocellular carcinoma + neoplastic nodule, dosed 103 weeks, study length 104 weeks) 17.9 mg/kg/day; (rat, strain Fischer 344, males, in feed, site: liver, lesion: neoplastic nodule, dosed 103 weeks, study length 104 weeks) 17.7 mg/kg/day. Further, the carcinogen call was “negative (inactive)” (mouse, strain CBA, females, in feed, site: liver, lesion: hepatoma, dosed 52 weeks, study length 104 weeks) and “negative (inactive)” (mouse, strain CBA, males, in feed, site: liver, lesion: hepatoma, dosed 52 weeks, study length 104 weeks).

Consider `N#CS`, for which the carcinogen call (rat, strain Fischer 344, females, in drinking water, site: liver, lesion: one or several types, types not named, dosed 112 weeks, study length 130 weeks) is “negative (inactive)”. Besides, the TD50 reads like this: (rat, strain Fischer 344, males, in drinking water, site: liver, lesion: one or several types, types not named, dosed 112 weeks, study length 130 weeks) 2760 mg/kg/day (inactive); (rat, strain Fischer 344, males, in drinking water, site: skin and subcutis, lesion: one or several types, types not named, dosed 112 weeks, study length 130 weeks) 224 mg/kg/day (inactive).

Regarding `O=NN1CC=CCC1`, the TD50 (rat, strain Fischer 344, females, in drinking water, site: esophagus, lesion: several types, types named in the paper, dosed 25 weeks, study length 128 weeks) is 0.216 mg/kg/day; the TD50 (rat, strain Fischer 344, females, in drinking water, site: esophagus, lesion: several types, types named in the paper, dosed 70 weeks, study length 100 weeks) was 0.127 mg/kg/day; the TD50 (rat, strain Fischer 344, females, in drinking water, site: esophagus, lesion: several types, types named in the paper, dosed 100 weeks, study length 128 weeks) is 0.0669 mg/kg/day; the TD50 (rat, strain Fischer 344, females, in drinking water, site: esophagus, lesion: squamous-cell carcinoma, dosed 100 weeks, study length 128 weeks) is 0.43 mg/kg/day; the TD50 (rat, strain Fischer 344, females, in drinking water, site: liver, lesion: hemangiosarcoma, dosed 25 weeks, study length 128 weeks) was 4.04 mg/kg/day; the TD50 (rat, strain Fischer 344, females, in drinking water, site: liver, lesion: hyperplastic nodule, dosed 70 weeks, study length 100 weeks) is 2.15 mg/kg/day. The TD50 (rat, strain Fischer 344, females, in drinking water, site: liver, lesion: hyperplastic nodule, dosed 100 weeks, study length 128 weeks) was 0.284 mg/kg/day; the TD50 (rat, strain Fischer 344, females, in drinking water, site: liver, lesion: several types, types named in the paper, dosed 100 weeks, study length 128 weeks) is 0.132 mg/kg/day; the TD50 (rat, strain Fischer 344, females, in drinking water, site: stomach, nonglandular, lesion: basal-cell papilloma, dosed 100 weeks, study length 128 weeks) was 0.0551 mg/kg/day; the TD50 (rat, strain Fischer 344, females, in drinking water, site: upper gastrointestinal tract, lesion: carcinoma, dosed 25 weeks, study length 128 weeks) is 0.271 mg/kg/day; the TD50 (rat, strain Fischer 344, females, in drinking water, site: upper gastrointestinal tract, lesion: carcinoma, dosed 70 weeks, study length 100 weeks) is 0.0966 mg/kg/day; the TD50 (rat, strain Fischer 344, females, in drinking water, site: upper gastrointestinal tract, lesion: carcinoma, dosed 100 weeks, study length 128 weeks) was 0.0856 mg/kg/day. Also, the TD50 by setting is: (rat, strain Fischer 344, females, in drinking water, site: upper gastrointestinal tract, lesion: several types, types named in the paper, dosed 25 weeks, study length 128 weeks) 0.142 mg/kg/day; (rat, strain Fischer 344, females, in drinking water, site: upper gastrointestinal tract, lesion: several types, types named in the paper, dosed 100 weeks, study length 128 weeks) 0.0374 mg/kg/day. The carcinogen call is “positive” (rat, strain Fischer 344, females, in drinking water, site: liver, lesion: hepatocellular carcinoma, dosed 25 weeks, study length 128 weeks); “positive” (rat, strain Fischer 344, females, in drinking water, site: liver, lesion: several types, types named in the paper, dosed 25 weeks, study length 128 weeks); “positive” (rat, strain Fischer 344, females, in drinking water, site: stomach, nonglandular, lesion: basal-cell papilloma, dosed 25 weeks, study length 128 weeks); “positive” (rat, strain Fischer 344, females, in drinking water, site: upper gastrointestinal tract, lesion: several types, types named in the paper, dosed 70 weeks, study length 100 weeks).
